Measurements from patent publication US20190255175A1, “ACTIVATION OF TRPA1+ NOCICEPTORS IN THE VAGUS NERVE ATTENUATES SYSTEMIC INFLAMMATION” (THE FEINSTEIN INSTITUTE FOR MEDICAL RESEARCH, priority 2018, published 2019).

Key:
[1] = Thermoregulation: intraperitoneal body temperature recorded by implant after IL-1β injection; format: in vivo, mice; conditions: for Change in ip body temperature: WT mice
Method: FIG. 5A-5B. […] Body temperature was recorded using an ETA-F10 temperature implant (DSI New Brighton, Minn.) that was placed in the peritoneal cavity and fixed to the peritoneal wall. After recording the baseline temperature for 1 hr, rmIL-1β (5.0 μg/kg) was administered by i.p injection. Body temperature of wildtype (n=4) and TRPA1 KO mice (n=4) was recorded for 5 hours post injection. ****p<0.0001. B) IL-1β induces a dose-dependent hypothermic response in mice. After recording the baseline temperature for 1 hr, rmIL-1β (0 [n=4], 0.5 [n=4], 50.0 [n=3] μg/kg) was administered by i.p injection. Body temperature was recorded for 5 hours post injection.
Mice were anesthetized with 2.5% isoflurane with an oxygen flow of 1 L/min. Once anesthetized, the mouse was moved to a supine position with the isoflurane maintained at 2.0% during surgery. A midline incision was made above the peritoneal cavity, with a ETA-F10 temperature implant (DSI New Brighton, Minn.) placed in the peritoneal cavity and tacked to the peritoneal wall. The cavity was then closed, and the mouse monitored every day for 3 days. The mouse was allowed to recover for a minimum of five days prior to any manipulation. The mice were placed on the DIS with baseline ip body temperature recorded for 1 hour prior to IL-1β or saline injection. The ip body temperature recording then continued for 5 hours post injection.
Thermoregulation, specifically in cold sensing, is another major function of the TRPA1 ion channel. When housed at approximately 23° C., WT mice injected with murine IL-1β (5 μg/kg) have significant decrease in body temperature (t-test, p<0.0001) peaking at a temperature change of −2.3±0.15° C., while TRPA1 KO mice have no significant change in body temperature after IL-1β (5 μg/kg) peaking at 0.18±0.40° C. (FIG. 5A). […] However, there was no significant change in ip body temperature after saline ([…]) (t-test, p>0.05) (FIG. 5B). This indicates a previously unknown mechanism of IL-1β fever singling through TRPA1+ fibers of the vagus nerve, linking TRPA1's role in both thermoregulation as well as afferent inflammatory signaling through the vague nerve.

[2] = IL-1β induced inflammation: serum and spleen cytokines; format: in vivo; conditions: TRPA1 KO mice; after IL-1β administration; 3 hours
Method: Mice were injected with 3.2 μg/kg IL-1β ip or saline. Three hours later the mice were euthanized, and blood, spleen, and two brain regions collected. Blood was collected by cardiac puncture. To obtain serum from these samples, blood was allowed to clot for approximately 45 min to 1 h. The blood was then spun at 5,000 rpm for 10 min and 10,000 For 2 min. Supernatants (serum) were collected and stored at −20° C. prior to use. The spleen was homogenized using a bullet blender homogenizer (Next Advance, Averill Park, N.Y., USA) and the recommended bead homogenization kit and protocol in a 4° C. walk-in refrigerator. The homogenized sample was then spun down at 15,000 rpm for 10 min with the supernatants collected and stored at −20° C. Splenic protein level was measured using the Bradford assay. IL-6, IL-1β, KC/Gro (CXCL1), and IL-1β for both serum and spleen were measured on a custom mouse inflammatory electrochemiluminescent kit (Meso Scale Discovery, Gaithersburg, Md., USA) according to manufacturer's recommendations. The brain stem region was collected on ice, using a binocular dissection microscope and placed in the same tube. Brain regions were snap frozen on dry ice and transferred to storage at −80° C.
The serum and splenic tissue of these mice were then analyzed for known downstream signaling molecules of IL-1β, IL-6, IL-1β and KC/GRO (CXCL1).

[3] = system: nodose ganglion neurons; assay: Whole-cell patch clamp recordings of nodose ganglion neurons; format: cell-based, mice
Method: Whole-cell patch clamp recordings were made with glass pipettes pulled on a P-97 electrode puller (Sutter Instruments, Novato, Calif.). The resistance of the pipettes was 2-4 MΩ when filled with an intracellular solution (in mM: CsCl 140, HEPES 10, EGTA 5, Mg-ATP 2, NaGTP 0.3, MgCl2 2, Phosphocreatine 10, pH 7.25 adjusted with CsOH). Cells were superfused at a rate of 2 ml/min with an external bath solution containing the following (in mM): 150 NaCl, 2.5 KCl, 10 HEPES, 10 D-glucose, 2 CaCl2, and 1 MgCl2, pH 7.3-7.4. Experiments were performed at room temperature (22-24° C.). Currents from neurons were monitored with an Multiclamp 700B amplifier (Molecular Devices, Union City, Calif.), acquired through Digidata 1550B (Molecular Devices) onto a computer using pClamp 11 software (Molecular Devices). Data were analyzed using Clampfit 11 (Molecular Devices). All chemicals used for electrophysiological recordings were purchased from Sigma. All drugs and solutions were made fresh from drug stock solutions.
(§1) Using patch clamp recordings, IL-1β responses were recorded in nodose ganglion neurons. Application of IL-1β (20 μg/ml) induced calcium influx as indicated by increase of fluorescence in 6 out of 332 (1.8%) sensory nodose ganglion neurons from VGlut2-GCaMP3 mice. Next, whole-cell patch clamp recordings were carried out on the same neurons that responded to IL-1β in calcium influx analysis. When the membrane potential was held at −65 mV, bath application of IL-1β (20 μg/ml) produced slow inward currents in 4 out of 332 (1.2%) nodose neurons. The amplitude of IL-1β induced currents are 108±23 pA (n=4). […] In current-clamp mode, IL-1β reduced action potential threshold from −25±2 mV to −31±3 mV (n=4). […] To further determine the potential interaction of TRPA1 with IL-1β, nodose ganglion neurons from TRPA1 KO mice were examined in a culture system. […] IL1R1 co-localizes with TRPA1 on nodose ganglion neurons, as was determined using immunohistochemical staining.

[4] = system: sensory nodose ganglion neurons; assay: Calcium influx (fluorescence) in sensory nodose ganglion neurons from VGlut2-GCaMP3 mice; format: cell-based; conditions: IL-1β 20 μg/ml; 6 out of 332 neurons
Method: as §1

In the case of “IL-1β: interleukin 1β; recombinant human IL-1β for nerve recordings, murine (rmIL-1β) for thermoregulation”, the “Peak body temperature change” value ([1]; TRPA1 KO mice, IL-1β 5 μg/kg ip) is reported as 0.18±0.40 °C, the “Peak body temperature change” value ([1]; WT mice housed at approximately 23° C., murine IL-1β 5 μg/kg ip) is reported as −2.3±0.15 °C and the “Change in ip body temperature” value ([1]; IL-1β 0.5 μg/kg) is reported as “significant decreases”. For the same substance, the “Change in ip body temperature” value ([1]; IL-1β 50 μg/kg) was “significant decreases”, the “IL-6, IL-1β and KC/GRO (CXCL1) in serum and spleen” value [2] was “further increases” and the “Neurons with slow inward currents” value ([3]; IL-1β 20 μg/ml bath application, held at −65 mV, 4 out of 332 neurons) was 1.2%. For the same substance, the “Amplitude of IL-1β induced currents” value ([3]; IL-1β 20 μg/ml, −65 mV, n=4) was 108±23 pA, the “Action potential threshold after IL-1β” value ([3]; current-clamp mode, reduced from −25±2 mV, n=4) was −31±3 mV and the “Neurons showing calcium influx (increase of fluorescence)” value [4] was 1.8%.
